Measured values reported in patent EP4600371A1, “CELL-FREE GLYCOSYLATION OF PEPTIDES AND PROTEINS” (ETH Zurich, priority 2024, dated 2025).

Experiments:
TbSTT3B = experiment: Kinetic assay with ssOST enzyme: in vitro glycosylation of acceptor peptide, UPLC readout; type: biochemical, Trypanosoma brucei; conditions: for completion of the glycosylation reaction: after an hour of incubation at room temperature, TbSTT3B
Method: In vitro glycosylation reactions were performed by mixing 50 nM purified TbSTT3A or 100 nM TbSTT3B protein, 15µM Phy-LLO or Dol20-LLO, 10 mM MnCl2, 150 mM NaCl, 20 mM HEPES pH 7.5, 0.035% DDM, 0.007% CHS and 20 µM of the acceptor peptide (for STT3A: 5CF-GSDANYTYTQ (SEQ ID No 33), for STT3B: 5CF-GSLANYTK (SEQ ID No 34)), […] 1 µL samples were taken at different time points and diluted in 10% ACN, 10 mM phosphate buffer pH 7. Samples were analyzed by reverse-phase chromatography using a UPLC Dionex UltiMate 3000 with an Accucore 150-C18 100 × 2.1 mm 2.6 µm column (Thermo Fisher Scientific)40. Peaks for glycopeptide and peptide were integrated using the Software ChromeleonTM, and the amount of produced glycopeptide was determined for each data point. Turnover rate determination was performed by fitting of the data to linear regression using PRISM software.

TbSTT3A = experiment: as above; type: biochemical, Trypanosoma brucei; conditions: compared to Dol20-PP-GlcNAc2Man5 as donor; 50 nM TbSTT3A, 15 µM LLO, 20 µM 5CF-GSDANYTYTQ, 30°C; Figure 3A
Method: In vitro glycosylation reactions were performed by mixing 50 nM purified TbSTT3A or 100 nM TbSTT3B protein, 15µM Phy-LLO or Dol20-LLO, 10 mM MnCl2, 150 mM NaCl, 20 mM HEPES pH 7.5, 0.035% DDM, 0.007% CHS and 20 µM of the acceptor peptide (for STT3A: 5CF-GSDANYTYTQ (SEQ ID No 33), for STT3B: 5CF-GSLANYTK (SEQ ID No 34)), and incubating at 30°C. 1 µL samples were taken at different time points and diluted in 10% ACN, 10 mM phosphate buffer pH 7. Samples were analyzed by reverse-phase chromatography using a UPLC Dionex UltiMate 3000 with an Accucore 150-C18 100 × 2.1 mm 2.6 µm column (Thermo Fisher Scientific)40. Peaks for glycopeptide and peptide were integrated using the Software ChromeleonTM, and the amount of produced glycopeptide was determined for each data point. Turnover rate determination was performed by fitting of the data to linear regression using PRISM software.

Row | Substance | completion of the glycosylation reaction (TbSTT3B) | turnover rate of glycosylation (TbSTT3A) | turnover rate (TbSTT3B; compared to Dol20-PP-GlcNAc2Man9 as substrate, 100 nM TbSTT3B, 15 µM LLO, 20 µM 5CF-GSLANYTK, 30°C, Figure 3B)
1 | Dol20-PP-GlcNAc2Man9 [reference compound] | went to completion |  | 
2 | phy-PP-GlcNAc2Man5 |  | almost identical | 
3 | phy-PP-GlcNAc2Man9 | went to completion |  | somewhat slower
